In US20240182461A1, “SELECTIVE ANGIOTENSIN II RECEPTOR LIGANDS” (priority 2021, published 2024) one finds half-life and inhibition data, which are given here for 10 molecules.

Where two headings read alike, the source gives them in different places.

Assay type in all cases: in vitro ADME
The nature of data set [1]: Metabolic stability in pooled human liver microsomes. Conditions: human liver microsomes 0.5 mg/mL, 1 μM compound, 37° C.
The next data set has as its target T1, CYP1A (Homo sapiens, UniProt P05177).
T1 construct: incubated with human liver microsomes; from tissue; host or cells: human liver microsomes
The data set can be described thus: CYP inhibition in human liver microsomes, CYP1A. Conditions: probe phenacetin, substrate phenacetin, read-out: CYP1A Inh %.

Another data set concerns the target T2, CYP2B6 (Homo sapiens, UniProt P20813).
T2 construct: incubated with human liver microsomes; from tissue; host or cells: human liver microsomes
T2 sequence (P20813 1-491): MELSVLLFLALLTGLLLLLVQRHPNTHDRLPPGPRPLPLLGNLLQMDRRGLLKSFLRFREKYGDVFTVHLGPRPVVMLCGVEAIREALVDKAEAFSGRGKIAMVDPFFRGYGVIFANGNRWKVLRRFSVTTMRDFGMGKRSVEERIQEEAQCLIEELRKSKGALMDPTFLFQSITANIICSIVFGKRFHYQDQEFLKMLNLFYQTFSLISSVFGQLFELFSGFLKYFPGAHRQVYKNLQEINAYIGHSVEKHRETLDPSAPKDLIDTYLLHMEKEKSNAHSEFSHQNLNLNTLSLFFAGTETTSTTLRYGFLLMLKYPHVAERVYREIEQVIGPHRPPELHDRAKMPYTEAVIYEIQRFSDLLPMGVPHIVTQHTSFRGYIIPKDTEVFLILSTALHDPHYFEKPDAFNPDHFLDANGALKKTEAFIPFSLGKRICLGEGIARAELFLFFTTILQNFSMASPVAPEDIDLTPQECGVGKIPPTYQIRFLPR
In words: CYP inhibition in human liver microsomes, CYP2B6. Conditions: probe bupropion, substrate bupropion, read-out: CYP2B6 Inh %. (Liver microsomes are vesicles of endoplasmic reticulum, rich in cytochrome P450 enzymes.)

Another data set concerns the target T3, CYP2C19 (Homo sapiens, UniProt P33261).
T3 construct: incubated with human liver microsomes; from tissue; host or cells: human liver microsomes
In words: CYP inhibition in human liver microsomes, CYP2C19. Particulars: probe omeprazole, substrate omeprazole, read-out: CYP2C19 Inh %.

The target in another data set is T4, CYP2C8 (Homo sapiens, UniProt P10632).
T4 construct: incubated with human liver microsomes; from tissue; host or cells: human liver microsomes
T4 sequence (P10632 1-490): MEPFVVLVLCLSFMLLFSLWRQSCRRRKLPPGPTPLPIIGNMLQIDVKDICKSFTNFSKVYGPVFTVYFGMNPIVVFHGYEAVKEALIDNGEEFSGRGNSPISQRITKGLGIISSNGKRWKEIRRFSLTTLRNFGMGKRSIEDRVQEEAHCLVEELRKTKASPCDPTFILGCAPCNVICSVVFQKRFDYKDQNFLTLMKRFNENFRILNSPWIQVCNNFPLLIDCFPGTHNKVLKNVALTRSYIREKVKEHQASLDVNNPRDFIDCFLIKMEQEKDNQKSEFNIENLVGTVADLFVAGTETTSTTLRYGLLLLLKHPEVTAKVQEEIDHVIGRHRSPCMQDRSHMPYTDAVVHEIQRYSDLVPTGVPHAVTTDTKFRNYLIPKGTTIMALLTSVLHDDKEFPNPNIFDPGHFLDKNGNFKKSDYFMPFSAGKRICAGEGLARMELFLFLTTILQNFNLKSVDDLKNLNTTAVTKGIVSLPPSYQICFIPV
In words: CYP inhibition in human liver microsomes, CYP2C8. Conditions: probe paclitaxel and amodiaquine, substrates paclitaxel and amodiaquine, read-out: CYP2C8 Inh %.

Another data set addresses T5, CYP2D6 (Homo sapiens, UniProt P10635).
T5 construct: incubated with human liver microsomes; from tissue; host or cells: human liver microsomes
The data set can be described thus: CYP inhibition in human liver microsomes, CYP2D6. Conditions: probe dextromethorphan, substrate dextromethorphan, read-out: CYP2D6 Inh %.

A further data set concerns CYP3A4&5. The data set can be described thus: CYP inhibition in human liver microsomes, CYP3A4&5 testosterone. Particulars: probe testosterone, substrate testosterone, read-out: CYP3A4&5 testosterone Inh %.
The next data set has as its target CYP2C9 (Homo sapiens, UniProt P11712). In words: CYP inhibition in human liver microsomes, CYP2C9. The arrangement: incubated with human liver microsomes; from tissue; host or cells: human liver microsomes. Conditions: probe diclofenac, substrate diclofenac, read-out: CYP2C9 Inh %.
Another data set concerns the target CYP3A4 (Homo sapiens, UniProt P08684). The data set can be described thus: CYP inhibition in human liver microsomes, CYP3A4 midazolam. The arrangement: incubated with human liver microsomes; from tissue; host or cells: human liver microsomes. Particulars: probe midazolam, substrate midazolam, read-out: CYP3A4 midazolam Inh %.
[2] abbreviates: with 1 mM NADPH, read-out: T1/2, + NaDPH.
Setting [3] is: without NADPH, read-out: T1/2, no NaDPH.

CYP2C9, sequence (P11712 whole entry): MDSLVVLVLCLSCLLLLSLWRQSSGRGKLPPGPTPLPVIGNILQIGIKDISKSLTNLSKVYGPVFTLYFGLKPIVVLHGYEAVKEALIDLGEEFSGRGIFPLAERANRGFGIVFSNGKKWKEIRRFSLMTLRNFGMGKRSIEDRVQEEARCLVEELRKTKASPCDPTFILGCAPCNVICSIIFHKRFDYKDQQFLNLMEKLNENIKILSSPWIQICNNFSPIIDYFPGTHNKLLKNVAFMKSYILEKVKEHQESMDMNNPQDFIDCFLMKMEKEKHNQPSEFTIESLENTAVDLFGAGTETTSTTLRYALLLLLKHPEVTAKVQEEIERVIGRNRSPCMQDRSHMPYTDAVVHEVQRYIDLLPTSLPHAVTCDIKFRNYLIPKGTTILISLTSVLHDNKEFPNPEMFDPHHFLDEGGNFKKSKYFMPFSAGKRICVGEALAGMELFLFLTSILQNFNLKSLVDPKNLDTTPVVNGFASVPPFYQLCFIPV
T3 sequence (P33261 whole entry): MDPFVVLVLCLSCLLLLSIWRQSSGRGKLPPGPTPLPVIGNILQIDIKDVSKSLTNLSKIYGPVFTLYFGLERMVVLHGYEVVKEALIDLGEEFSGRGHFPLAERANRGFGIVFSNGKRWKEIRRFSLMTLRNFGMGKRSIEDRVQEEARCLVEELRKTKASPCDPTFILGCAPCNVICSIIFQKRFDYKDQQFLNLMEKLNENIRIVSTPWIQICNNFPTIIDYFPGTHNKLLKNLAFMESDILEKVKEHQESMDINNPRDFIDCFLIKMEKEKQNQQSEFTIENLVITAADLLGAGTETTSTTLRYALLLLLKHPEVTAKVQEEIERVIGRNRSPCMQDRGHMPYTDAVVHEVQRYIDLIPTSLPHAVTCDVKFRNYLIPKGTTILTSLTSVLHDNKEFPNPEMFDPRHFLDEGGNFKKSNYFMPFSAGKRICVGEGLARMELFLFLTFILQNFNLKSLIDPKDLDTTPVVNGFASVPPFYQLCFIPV
T5 sequence (P10635 whole entry): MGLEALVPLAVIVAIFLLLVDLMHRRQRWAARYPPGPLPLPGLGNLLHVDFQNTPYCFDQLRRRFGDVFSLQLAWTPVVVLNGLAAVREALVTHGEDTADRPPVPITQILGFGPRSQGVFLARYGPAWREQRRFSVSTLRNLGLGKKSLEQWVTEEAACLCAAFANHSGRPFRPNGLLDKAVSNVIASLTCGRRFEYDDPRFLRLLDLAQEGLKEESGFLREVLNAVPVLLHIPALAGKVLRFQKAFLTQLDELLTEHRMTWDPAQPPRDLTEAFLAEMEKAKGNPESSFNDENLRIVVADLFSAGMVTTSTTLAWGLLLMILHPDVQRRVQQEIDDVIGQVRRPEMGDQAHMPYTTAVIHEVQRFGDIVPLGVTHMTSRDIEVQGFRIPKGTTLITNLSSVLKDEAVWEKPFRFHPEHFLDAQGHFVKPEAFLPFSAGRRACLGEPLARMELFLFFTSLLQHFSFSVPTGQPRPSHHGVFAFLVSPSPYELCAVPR
T1 sequence (P05177 whole entry): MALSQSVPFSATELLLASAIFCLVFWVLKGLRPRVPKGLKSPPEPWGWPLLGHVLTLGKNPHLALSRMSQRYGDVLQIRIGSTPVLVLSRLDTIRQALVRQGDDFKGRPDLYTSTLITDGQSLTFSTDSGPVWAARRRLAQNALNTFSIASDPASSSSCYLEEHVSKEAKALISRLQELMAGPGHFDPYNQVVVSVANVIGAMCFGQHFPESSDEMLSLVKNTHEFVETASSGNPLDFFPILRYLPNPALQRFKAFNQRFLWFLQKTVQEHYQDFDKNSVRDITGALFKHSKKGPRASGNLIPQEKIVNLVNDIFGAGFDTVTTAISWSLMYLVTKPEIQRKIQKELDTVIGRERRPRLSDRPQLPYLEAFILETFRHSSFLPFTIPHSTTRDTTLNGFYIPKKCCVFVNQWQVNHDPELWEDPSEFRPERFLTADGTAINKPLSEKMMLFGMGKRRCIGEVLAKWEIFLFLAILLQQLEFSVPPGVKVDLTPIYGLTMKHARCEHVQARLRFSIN
CYP3A4, sequence (P08684 whole entry): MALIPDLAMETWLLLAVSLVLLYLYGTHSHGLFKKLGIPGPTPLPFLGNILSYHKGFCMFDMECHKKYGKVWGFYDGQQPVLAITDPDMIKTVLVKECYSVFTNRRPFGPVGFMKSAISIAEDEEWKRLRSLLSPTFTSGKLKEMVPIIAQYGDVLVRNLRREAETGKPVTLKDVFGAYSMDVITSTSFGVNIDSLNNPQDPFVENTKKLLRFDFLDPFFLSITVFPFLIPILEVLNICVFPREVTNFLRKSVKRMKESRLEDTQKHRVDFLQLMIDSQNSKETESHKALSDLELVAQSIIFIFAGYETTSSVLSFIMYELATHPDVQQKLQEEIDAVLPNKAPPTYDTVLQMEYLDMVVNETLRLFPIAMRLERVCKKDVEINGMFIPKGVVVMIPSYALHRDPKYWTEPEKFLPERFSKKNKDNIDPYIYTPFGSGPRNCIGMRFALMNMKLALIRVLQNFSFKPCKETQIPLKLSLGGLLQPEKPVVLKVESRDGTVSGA

Regarding `CC(C)Cc1ccc(S(=O)(=O)NC(=O)OCCO)c(-c2ccc(Cn3ccnc3C(C)(C)C)cc2)c1` [Example 16, 2-Hydroxyethyl (4′-((2-(tert-butyl)-1H-imidazol-1-yl)methyl)-5-isobutyl-[1,1′-biphenyl]-2-yl)sulfonylcarbamate], the half-life at 1 μM in data set [1] (setting [2]) and in data set [1] (setting [3]) was above 60 min throughout.
As for `CCOC(=O)NS(=O)(=O)c1ccc(CC(C)C)cc1-c1ccc(Cn2ccnc2C)c(F)c1` [Example 12, Ethyl ((3′-fluoro-5-isobutyl-4′-((2-methyl-1H-imidazol-1-yl)methyl)-[1,1′-biphenyl]-2-yl)sulfonyl)carbamate], the values for the half-life at 1 μM in data set [1] (setting [2]) and in data set [1] (setting [3]) were above 60 min and 50 min, respectively. Besides, the inhibition at 10 µM on CYP1A is 5.9%; at CYP2B6 it was 18.9%; on CYP2C19, 50.7%; at CYP2C8, 39.7%; at CYP2D6, 2.9%; with CYP3A4&5, 12.6%. Also, the results for the inhibition at 10 µM at CYP2C9 and on CYP3A4 were 52.6% and 8.6%, respectively.
As for `CCOC(=O)NS(=O)(=O)c1ccc(CC(C)C)cc1-c1ccc(Cn2ccnc2C(C)C)c(F)c1` [Example 8, Ethyl ((3′-fluoro-5-isobutyl-4′-((2-isopropyl-1H-imidazol-1-yl)methyl)-[1,1′-biphenyl]-2-yl)sulfonyl)carbamate], the half-life at 1 μM in data set [1] (setting [2]) was determined as 36 min; in data set [1] (setting [3]), 35 min. In addition, the inhibition at 10 µM on CYP1A came to 10.4%; on CYP2B6, 32%; on CYP2C19, 33.7%; on CYP2C8 it was 76.7%; on CYP2D6, 1.2%; with CYP3A4&5 it was 19.4%. Also, the inhibition at 10 µM is 50% on CYP2C9 and -4.7% at CYP3A4.
For the molecule `CCCCOC(=O)NS(=O)(=O)c1ccc(CC(C)C)cc1-c1ccc(Cn2ccnc2CC)c(F)c1` [Example 11, Butyl ((4′-((2-ethyl-1H-imidazol-1-yl)methyl)-3′-fluoro-5-isobutyl-[1,1′-biphenyl]-2-yl)sulfonyl)carbamate], the half-life at 1 μM in [1] (setting [2]) and in data set [1] (setting [3]) was 26 min in each case. The inhibition at 10 µM is 4.3% at CYP1A; 35% on CYP2B6; 59.3% at CYP2C19; 61.3% on CYP2C8; 0.3% at CYP2D6; 30.5% with CYP3A4&5. Besides, the inhibition at 10 µM on CYP2C9 turned out to be 81.3%; at CYP3A4, 5.6%.
As for `CCCCOC(=O)NS(=O)(=O)c1ccc(CC(C)C)cc1-c1ccc(Cn2ccnc2C)c(F)c1` [Example 10, Butyl ((3′-fluoro-5-isobutyl-4′-((2-methyl-1H-imidazol-1-yl)methyl)-[1,1′-biphenyl]-2-yl)sulfonyl)carbamate], the half-life at 1 μM in data set [1] (setting [2]) came out at 32 min; in data set [1] (setting [3]) it was 35 min. For the same molecule, the inhibition at 10 µM is 3.2% at CYP1A; 31.8% on CYP2B6; 54.9% at CYP2C19; 46.9% on CYP2C8; -12.9% on CYP2D6; 24.5% in the data set on CYP3A4&5. Besides, the figures for the inhibition at 10 µM at CYP2C9 and at CYP3A4 were 68.6% and 11.5%, respectively.
Take `COC(=O)NS(=O)(=O)c1ccc(CC(C)C)cc1-c1ccc(Cn2ccnc2C(C)(C)C)c(F)c1` [Example 5, Methyl ((4′-((2-(tert-butyl)-1H-imidazol-1-yl)methyl)-3′-fluoro-5-isobutyl-[1,1′-biphenyl]-2-yl)sulfonyl)carbamate]: the half-life at 1 μM in data set [1] (setting [2]) and in data set [1] (setting [3]) was above 60 min each time. Further, the inhibition at 10 µM at CYP1A is -13.1%; on CYP2B6 it was 26.2%; on CYP2C19, 34.4%; at CYP2C8 it was 87.9%; at CYP2D6 it was 17.7%; with CYP3A4&5, 15.1%. For the same molecule, the inhibition at 10 µM at CYP2C9 was determined as 72%; at CYP3A4, 3.8%.
In the case of `CCCCOC(=O)NS(=O)(=O)c1ccc(CC(C)C)cc1-c1ccc(Cn2ccnc2C(C)C)c(F)c1` [Example 7, Butyl ((3′-fluoro-5-isobutyl-4′-((2-isopropyl-1H-imidazol-1-yl)methyl)-[1,1′-biphenyl]-2-yl)sulfonyl)carbamate], the half-life at 1 μM in [1] (setting [2]) was determined as 18 min; in data set [1] (setting [3]), 20 min. Also, the inhibition at 10 µM at CYP1A was 6.3%; on CYP2B6, 52.2%; at CYP2C19, 59.3%; on CYP2C8, 73.9%; on CYP2D6, -4.1%; in the data set on CYP3A4&5, 29.7%. Moreover, the results for the inhibition at 10 µM at CYP2C9 and at CYP3A4 were 80.7% and 9.7%, respectively.
In the case of `CCc1nccn1Cc1ccc(-c2cc(CC(C)C)ccc2S(=O)(=O)NC(=O)OC)cc1F` [Example 15, Methyl ((4′-((2-ethyl-1H-imidazol-1-yl)methyl)-3′-fluoro-5-isobutyl-[1,1′-biphenyl]-2-yl)sulfonyl)carbamate], the half-life at 1 μM in [1] (setting [2]) and in data set [1] (setting [3]) was above 60 min in each case. Also, the inhibition at 10 µM at CYP1A was 7%; on CYP2B6, 16.1%; at CYP2C19 it was 21.5%; on CYP2C8 it was 52.4%; on CYP2D6 it was 2.2%; with CYP3A4&5 it was 18.4%. The inhibition at 10 µM on CYP2C9 was 59.6%; at CYP3A4, -5.3%.
Take `COC(=O)NS(=O)(=O)c1ccc(CC(C)C)cc1-c1ccc(Cn2ccnc2C)c(F)c1` [Example 13, Methyl ((3′-fluoro-5-isobutyl-4′-((2-methyl-1H-imidazol-1-yl)methyl)-[1,1′-biphenyl]-2-yl)sulfonyl)carbamate]: the half-life at 1 μM in data set [1] (setting [2]) and in data set [1] (setting [3]) was above 60 min throughout. For the same molecule, the inhibition at 10 µM is 7.6% at CYP1A; 18.4% at CYP2B6; 24.6% on CYP2C19; 27.7% on CYP2C8; -0.8% at CYP2D6; 14.5% in the data set on CYP3A4&5. The inhibition at 10 µM on CYP2C9 was found to be 32.3%; at CYP3A4, 9.3%.
With `COC(=O)NS(=O)(=O)c1ccc(CC(C)C)cc1-c1ccc(Cn2ccnc2C(C)C)c(F)c1` [Example 9, Methyl ((3′-fluoro-5-isobutyl-4′-((2-isopropyl-1H-imidazol-1-yl)methyl)-[1,1′-biphenyl]-2-yl)sulfonyl)carbamate], the half-life at 1 μM in [1] (setting [2]) and in [1] (setting [3]) was above 60 min each time. In addition, the inhibition at 10 µM at CYP1A is 2.5%; at CYP2B6, 28.2%; at CYP2C19, 27.2%; on CYP2C8, 77.2%; on CYP2D6 it was -2.4%; in the data set on CYP3A4&5, 17.5%. The inhibition at 10 µM at CYP2C9 was 37.9%; at CYP3A4 it was -4.9%.
